Test results: patent US10273238B2, “Indazolones as modulators of TNF signaling” (AbbVie Inc., priority 2015, dated 2019)

The compounds below were run against TNFα (Homo sapiens, UniProt P01375) (assay: TNFα FP Competitive Binding Assay). Settings: 20 nM TNFα trimer, 1 nM OregonGreen488 probe, read-out: TNF IC50.
Protocol: TNFα FP Competitive Binding Assay
Prepare 1× Assay Buffer (Water with 47 mil HEPES, 47 mM NaCl, 0.9 mM EDTA, 0.0071% Triton X-100) by adding 25 mL of 1 M HEPES, 5 mL of 5 M NaCl, 1 mL of 0.5 M EDTA, and 375 μL of a 10% Triton X-100 stock to a fresh 500 mL bottle of water.
Prepare fresh Assay Mixture containing 20 nM TNFα trimer (60 nM protein) and 1 nM 2′,7′-difluoro-3′,6′-dihydroxy-N-(2-(2-(2-((4-(isoquinolin-8-yl)-3-(4-(isoquinolin-8-yl)phenethoxy)benzyl)oxy)ethoxy)ethoxy)ethyl)-3-oxo-3H- spiro[isobenzofuran-1,9′-xanthene]-5-carboxamide probe in 1× Assay Buffer.
Top concentration of compounds, 10 mM in DMSO, dispensed in rows A-O in columns 1 and 13. Compounds are serially diluted 1:3 with DMSO in columns 2-12 or 14-24 using a 16-channel Matrix pipettor. Plates stored at −20° C.
Top concentration, 5 mM in DMSO, of compounds placed in rows A-O in columns 1 and 13.
Compounds are serially diluted 1:3 with DMSO in columns 2-12 or 14-24. Compound solutions are dispensed into replicate assay plates at 410 nL per well. Plates stored at 4° C.
TNFα FP Competitive Binding Assay Protocol • 1. Compound plates warmed to rt. • 2. Fresh Assay Mixture is prepared. • 3. Assay Mixture (20 μL) is dispensed each well of 384 assay plates using a Thermo Multidrop Combi or 16-channel Matrix pipettor. If Manual 12-point 1:3 Dilution Plates are to be tested, Assay Mix is dispensed into empty plates. Discovery Preps 12-point 1:3 Dilution Plates already contain 410 nL compound solution in DMSO. • 4. For Manual 12-point 1:3 Dilution Plates, 0.7 μL is manually transferred using a 16-channel Matrix pipettor to replicate assay plates containing 20 μL Assay Mixture for a final top compound concentration of […] (3.4% DMSO). • 5. For Discovery Preps 12-point 1:3 Dilution Plates, 20 μL Assay Mixture added the 410 nL compound solution already in the plates yields a final top compound concentration of 100 μM (2.0% DMSO). • 6. Background subtraction controls are wells P1-P8 containing only Assay Buffer. The low % inhibition controls are wells P9-P16 containing only Assay Mix. The high % inhibition are wells P17-P24 containing only 1 nM 2′,7′-difluoro-3′,6′-dihydroxy-N-(2-(2-(2-((4-(isoquinolin-8-yl)-3-(4-(isoquinolin-8-yl)phenethoxy)benzyl)oxy)ethoxy)ethoxy)ethyl)-3-oxo-3H-spiro[isobenzofuran-1,9′-xanthene]-5-carboxamide probe in 1× Assay Buffer. • 7. Plates are incubated at rt for 18-24 h in […] (CO2 is off). • 8. Prior to reading the assay, the plates are placed in a dark cabinet to equilibrate at rt for one hour. • 9. Background-subtracted fluorescence polarization (mP) is measured using a PerkinElmer Envision plate reader. • 10. Raw data is entered into Assay Explorer and dose-response curves are generated using a variable slope curve.

TNFα, sequence (P01375 77-233 limits assumed): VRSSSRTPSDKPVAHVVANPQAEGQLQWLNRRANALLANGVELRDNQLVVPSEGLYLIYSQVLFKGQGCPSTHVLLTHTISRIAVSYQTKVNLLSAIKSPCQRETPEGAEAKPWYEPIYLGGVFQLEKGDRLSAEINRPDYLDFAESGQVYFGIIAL

SMILES | IC50
COC[C@H]1CCCN1c1ncc(-c2ccc3c(c2)[C@@H]2[C@H](c4ccccc4OC(F)F)CCN2C3=O)cn1 (single isomer, unassigned) [Example 10.3] | 1 to 10 µM
COc1c(C#N)cccc1C1CCn2c(=O)c3ccc(-c4cnc(N5CCOCC5)nc4)cc3n21 (stereo not drawn) [Example 8.4, 2-methoxy-3-(6-(2-morpholinopyrimidin-5-yl)-9-oxo-1,2,3,9-tetrahydropyrazolo[1,2-a]indazol-3-yl)benzonitrile] | 1 to 10 µM
CC(C)n1nccc1C1CCn2c(=O)c3ccc(-c4cnc(N5CCOCC5)nc4)cc3n21 (stereo not drawn) [Example 8.5, 3-(1-isopropyl-1H-pyrazol-5-yl)-6-(2-morpholinopyrimidin-5-yl)-2,3-dihydropyrazolo[1,2-a]indazol-9(1H)-one] | > 10 µM
O=C(O)C1CCN(c2ncc(-c3ccc4c(=O)n5n(c4c3)C(c3ccccc3OC(F)F)CC5)cn2)CC1 (stereo not drawn) [Example 1.3, 1-(5-(3-(2-(difluoromethoxy)phenyl)-9-oxo-1,2,3,9-tetrahydropyrazolo[1,2-a]indazol-6-yl)pyrimidin-2-yl)piperidine-4-carboxylic acid] | 1 to 10 µM
COC[C@H]1CCCN1c1ncc(-c2ccc3c(=O)n4n(c3c2)[C@H](c2ccccc2OC(F)F)CC4)cn1 (single isomer, unassigned) [Example 1.4] | 1 to 10 µM
CC(C)(O)c1ncc(-c2ccc3c(c2)[C@H]2[C@@H](c4ccccc4OC(F)F)CCN2C3=O)cn1 (single isomer, unassigned) [Example 10.2] | 1 to 10 µM
O=c1c2ccc(-c3cnc(N4CCOCC4)nc3)cc2n2n1CCC2c1ccccc1OC(F)F (stereo not drawn) [Example 1, 3-(2-(Difluoromethoxy)phenyl)-6-(2-morpholinopyrimidin-5-yl)-2,3-dihydropyrazolo[1,2-a]indazol-9(1H)-one] | < 1 µM
O=c1c2ccc(-c3cnc(N4CCO[C@H](CO)C4)nc3)cc2n2n1CC[C@@H]2c1ccccc1OC(F)F (single isomer, unassigned) [Example 3.1] | < 1 µM
O=C1C[C@@H](CNc2ncc(-c3ccc4c(=O)n5n(c4c3)[C@H](c3ccccc3OC(F)F)CC5)cn2)CN1 (single isomer, unassigned) [Example 4.4] | < 1 µM
O=c1c2ccc(-c3cnc(N4CCC(O)CC4)nc3)cc2n2n1CCCC2c1ccccc1OC(F)F (stereo not drawn) [Example 7.2, 6-(2-(difluoromethoxy)phenyl)-3-(2-(4-hydroxypiperidin-1-yl)pyrimidin-5-yl)-8,9-dihydro-6H-pyridazino[1,2-a]indazol-11(7H)-one] | 1 to 10 µM
Cc1nc(C(C)(C)O)ncc1-c1ccc2c(=O)n3n(c2c1)[C@@H](c1ccccc1OC(F)F)CC3 [Example 6.6] | < 1 µM
CC(C)(O)c1ncc(-c2cc3c(cc2F)c(=O)n2n3[C@H](c3ccccc3OC(F)F)CC2)cn1 (single isomer, unassigned) [Example 12.2] | < 1 µM
CC(C)(O)c1ncc(-c2cc3c(cc2F)c(=O)n2n3[C@@H](c3ccccc3OC(F)F)CC2)cn1 (single isomer, unassigned) [Example 12.1] | < 1 µM
Cc1cccc(C2CCn3c(=O)c4ccc(-c5cnc(N6CCOCC6)nc5)cc4n32)c1C#N (stereo not drawn) [Example 8.1, 2-methyl-6-(6-(2-morpholinopyrimidin-5-yl)-9-oxo-1,2,3,9-tetrahydropyrazolo[1,2-a]indazol-3-yl)benzonitrile] | 1 to 10 µM
O=C1c2ccc(-c3cnc(N4CCOCC4)nc3)cc2[C@H]2[C@@H](c3ccccc3OC(F)F)CCN12 (single isomer, unassigned) [Example 9.2] | < 1 µM
COC[C@H]1CCCN1c1ncc(-c2ccc3c(=O)n4n(c3c2)[C@@H](c2ccccc2OC(F)F)CC4)cn1 (single isomer, unassigned) [Example 1.5] | 1 to 10 µM
O=c1c2ccc(-c3cnc(N4CCOCC4)nc3)cc2n2n1CC[C@@H]2c1ccccc1OC(F)F (single isomer, unassigned) [Example 1.1] | < 1 µM
O=C1NC[C@@H]2CN(c3ncc(-c4ccc5c(c4)[C@H]4[C@@H](c6ccccc6OC(F)F)CCN4C5=O)cn3)CCN12 (single isomer, unassigned) [Example 11.1] | < 1 µM
Cc1ccc(OC(F)F)c([C@H]2CCn3c(=O)c4cc(F)c(-c5cnc(C(C)(C)O)nc5)cc4n32)c1 (single isomer, unassigned) [Example 13.1] | < 1 µM
O=c1c2ccc(-c3cnc(N4CCC5(CC4)CC(O)C5)nc3)cc2n2n1CC[C@H]2c1ccccc1OC(F)F (single isomer, unassigned) [Example 4.8] | < 1 µM
O=C1c2ccc(-c3cnc(N4CCOCC4)nc3)cc2[C@@H]2[C@H](c3ccccc3OC(F)F)CCN12 (single isomer, unassigned) [Example 9.1] | > 10 µM
CC(=O)N1CCN(c2ncc(-c3ccc4c(=O)n5n(c4c3)[C@@H](c3ccccc3OC(F)F)CC5)cn2)C[C@H]1C (single isomer, unassigned) [Example 6.3] | < 1 µM
CC(C)(O)c1ncc(-c2ccc3c(c2)[C@@H]2[C@H](c4ccccc4OC(F)F)CCN2C3=O)cn1 (single isomer, unassigned) [Example 10.1] | > 10 µM

Second part, the compound after the results:

IC50 | SMILES
< 1 µM | O=c1c2ccc(-c3cnc(N4CCOCC4)nc3)cc2n2n1CCCC2c1ccccc1OC(F)F (stereo not drawn) [Example 7.1, 6-(2-(difluoromethoxy)phenyl)-3-(2-morpholinopyrimidin-5-yl)-8,9-dihydro-6H-pyridazino[1,2-a]indazol-11(7H)-one]
< 1 µM | O=c1c2ccc(-c3cnc(N4CCO[C@@H](CO)C4)nc3)cc2n2n1CC[C@H]2c1ccccc1OC(F)F (single isomer, unassigned) [Example 1.9]
< 1 µM | O=c1c2ccc(-c3cnc(N4CCC(O)CC4)nc3)cc2n2n1CCC2c1ccccc1OC(F)F (stereo not drawn) [Example 4.2, 3-(2-(difluoromethoxy)phenyl)-6-(2-(4-hydroxypiperidin-1-yl)pyrimidin-5-yl)-2,3-dihydropyrazolo[1,2-c]indazol-9(1H)-one]
< 1 µM | O=C1NC[C@H]2CN(c3ncc(-c4ccc5c(=O)n6n(c5c4)[C@H](c4ccccc4OC(F)F)CC6)cn3)CCN12 (single isomer, unassigned) [Example 5.1]
< 1 µM | Cc1ccc(OC(F)F)c([C@H]2CCn3c(=O)c4ccc(-c5cnc(N6CCN7C(=O)NC[C@H]7C6)nc5)cc4n32)c1 (single isomer, unassigned) [Example 15.1]
< 1 µM | Cc1ccc(OC(F)F)c([C@@H]2CCn3c(=O)c4ccc(-c5cnc(C(C)(C)O)nc5)cc4n32)c1 [Example 14.2]
< 1 µM | O=c1c2ccc(-c3cnc(N4CCC5(CC4)CC(O)C5)nc3)cc2n2n1CC[C@@H]2c1ccccc1OC(F)F (single isomer, unassigned) [Example 4.7]
< 1 µM | O=C1NC[C@@H]2CN(c3ncc(-c4ccc5c(=O)n6n(c5c4)[C@H](c4ccccc4OC(F)F)CC6)cn3)CCN12 (single isomer, unassigned) [Example 5.2]
< 1 µM | C[C@@H]1CN(c2ncc(-c3ccc4c(=O)n5n(c4c3)[C@@H](c3ccccc3OC(F)F)CC5)cn2)CCN1C(=O)CO (single isomer, unassigned) [Example 6.4]
< 1 µM | O=c1c2ccc(-c3cnc(N4CCOCC4)nc3)cc2n2n1CC[C@H]2c1ccccc1OC(F)F (single isomer, unassigned) [Example 1.2]
< 1 µM | CC(=O)N1CCN(c2ncc(-c3ccc4c(=O)n5n(c4c3)[C@@H](c3ccccc3OC(F)F)CC5)cn2)[C@H](C)C1 [Example 6.5, (R)-6-(2-((R)-4-acetyl-2-methylpiperazin-1-yl)pyrimidin-5-yl)-3-(2-(difluoromethoxy)phenyl)-2,3-dihydropyrazolo[1,2-a]indazol-9(1H)-one]
< 1 µM | O=C1NC[C@H]2CN(c3ncc(-c4ccc5c(=O)n6n(c5c4)[C@@H](c4ccccc4OC(F)F)CC6)cn3)CCN12 (single isomer, unassigned) [Example 6.1]
< 1 µM | Cc1ccc(OC(F)F)c([C@@H]2CCn3c(=O)c4cc(F)c(-c5cnc(C(C)(C)O)nc5)cc4n32)c1 (single isomer, unassigned) [Example 13.2]
